The test system of one experiment is Bacillus subtilis. In words: Antibacterial activity against Bacillus subtilis ATCC 6633 at 100 ug/ml after 24 hrs by twofold serial dilution method. It counts as functional, organism-based.
The subject of experiment [1] is Staphylococcus aureus. In words: Antibacterial activity against Staphylococcus aureus ATCC 6538p at 100 ug/ml after 24 hrs by twofold serial dilution method. In kind it is functional, organism-based.
In another experiment the test system is Salmonella typhimurium. The experiment in a line: Antibacterial activity against Salmonella Typhimurium ATCC 14028 at 100 ug/ml after 24 hrs by twofold serial dilution method. The settings on record: Salmonella enterica subsp. enterica serovar Typhimurium. It counts as functional, organism-based.
Another experiment concerns Escherichia coli. In words: Antibacterial activity against Escherichia coli ATCC 25922 at 100 ug/ml after 24 hrs by twofold serial dilution method. In kind it is functional, organism-based.
A further experiment relates to Candida albicans. The experiment in a line: Antifungal activity against Candida albicans ATCC 10231 after 48 to72 hrs by twofold serial dilution method. In kind it is functional.
Another experiment concerns Aspergillus fumigatus. The experiment in a line: Antifungal activity against Aspergillus fumigatus HIC 6094 after 48 to72 hrs by twofold serial dilution method. It counts as functional.
In the next experiment the test system is Trichophyton rubrum. In words: Antifungal activity against Trichophyton rubrum IFO 9185 after 48 to72 hrs by twofold serial dilution method. In kind it is functional.
Experiment [2] relates to Trichophyton mentagrophytes. The experiment in a line: Antifungal activity against Trichophyton mentagrophytes IFO 40996 after 48 to72 hrs by twofold serial dilution method. In kind it is functional.
Experiment [3] relates to Staphylococcus aureus. In words: Antibacterial activity against Staphylococcus aureus IFO 12708 at 100 ug/ml after 24 hrs by twofold serial dilution method. In kind it is functional, organism-based.
The test system of a further experiment is Proteus vulgaris. In words: Antibacterial activity against Proteus vulgaris ATCC 3851 at 100 ug/ml after 24 hrs by twofold serial dilution method. It counts as functional, organism-based.
Experiment [4] can be described thus: Induction of depolymerization of F-actin by fluorimetry.
Experiment [5] is described as follows: Induction of depolymerization of F-actin at 7.28 uM by fluorimetry relative to control.
The nature of experiment [6]: Induction of depolymerization of F-actin at 15 to 120 uM by fluorimetry relative to control.
Experiment [7] in a line: Induction of depolymerization of F-actin at 112 uM by fluorimetry relative to control.
The nature of experiment [8]: Induction of depolymerization of F-actin at 1.82 uM by fluorimetry relative to control.
A short description of experiment [9]: Induction of depolymerization of F-actin at 14 to 114 uM by fluorimetry relative to control.

Experimental findings from ChEMBL document CHEMBL1777811, “Actin depolymerizing effect of trisoxazole-containing macrolides” (2011) are described below.

Molecules are shown by their SMILES. Calls of active or inactive are those of the source. No cut-off for these calls is given here.

Take `COC(CC1OC(=O)CC(O)C/C=C/C(=O)C(C)C(OC)c2coc(n2)-c2coc(n2)-c2coc(n2)/C=C/CCC1C)C(C)CCC(=O)C(C)C(C/C=C/N(C)C=O)OC` (stereo unspecified) [HALICHONDRAMIDE]: the result in the experiment with Bacillus subtilis, in the experiment with Staphylococcus aureus [1], with Salmonella typhimurium, with Escherichia coli, in the experiment with Staphylococcus aureus [3] and in the experiment with Proteus vulgaris was inactive. Further, the MIC against Candida albicans turned out to be 0.23 µM; in the experiment with Aspergillus fumigatus, 0.45 µM; in the experiment on Trichophyton rubrum it was 0.48 µM; in experiment [2] it was 0.91 µM. Also, the Activity entry in [4] was “Dose-dependent effect”; in experiment [5], more than 90%.

Consider `COC(CC1OC(=O)CC(O)/C=C/CC(=O)C(C)C(OC)c2coc(n2)-c2coc(n2)-c2coc(n2)/C=C/CCC1C)C(C)CCC(=O)C(C)C(C/C=C/N(C)C=O)OC` (stereo unspecified) [NEOHALICHONDRAMIDE], for which the result in the experiment with Bacillus subtilis, in the experiment on Staphylococcus aureus [1], in the experiment on Salmonella typhimurium, in the experiment with Escherichia coli, in the experiment with Staphylococcus aureus [3] and in the experiment on Proteus vulgaris was inactive. Besides, in experiment [6], the result was inactive. Also, the MIC (in the experiment on Candida albicans; in the experiment on Aspergillus fumigatus; in the experiment on Trichophyton rubrum; in [2]) was more than 100 µg/mL throughout.

With `COC(=O)c1coc(/C=C/CCC(C)C(CC(OC)C(C)CCC(=O)C(C)C(C/C=C/N(C)C=O)OC)OC(=O)CC(O)C/C=C/C(=O)C(C)C(OC)c2coc(C(N)=O)n2)n1` (stereo unspecified) [HALISHIGAMIDE D], the result with Bacillus subtilis, in the experiment with Staphylococcus aureus [1], in the experiment with Salmonella typhimurium, in the experiment on Escherichia coli, with Staphylococcus aureus [3] and in the experiment on Proteus vulgaris was inactive. The MIC (in the experiment with Candida albicans; with Aspergillus fumigatus; in the experiment on Trichophyton rubrum; in [2]) was more than 100 µg/mL throughout. Besides, the Activity in experiment [7] was found to be 40%.

For `C[C@@H]1[C@H](O)[C@@H](C)/C=C/C=C/C=C/C=C/C=C/C=C/C=C/[C@H](O[C@@H]2O[C@H](C)[C@@H](O)[C@H](N)[C@@H]2O)C[C@@H]2O[C@](O)(C[C@@H](O)C[C@@H](O)[C@H](O)CC[C@@H](O)C[C@@H](O)CC(=O)O[C@H]1C)C[C@H](O)[C@H]2C(=O)O` [AMPHOTERICIN B], the MIC stood at 0.22 µM in the experiment on Candida albicans, 0.84 µM against Aspergillus fumigatus, 0.84 µM in the experiment with Trichophyton rubrum and 0.84 µM in experiment [2].

Take `COC(CC1OC(=O)CC(O)C/C=C\C(=O)C(C)C(OC)c2coc(n2)-c2coc(n2)-c2coc(n2)/C=C\CCC1C)C(C)CCC(=O)C(C)C(C/C=C/N(C)C=O)OC` (stereo unspecified): the result in the experiment with Bacillus subtilis, in the experiment with Staphylococcus aureus [1], in the experiment on Salmonella typhimurium, in the experiment on Escherichia coli, in the experiment with Staphylococcus aureus [3] and in the experiment on Proteus vulgaris was inactive. For the same compound, the MIC is 0.91 µM in the experiment on Candida albicans, 14.6 µM in the experiment with Aspergillus fumigatus, 7.27 µM against Trichophyton rubrum and 14.6 µM in experiment [2]. Also, the results for the Activity entry in experiment [4] and in experiment [8] were “Dose-dependent effect” and more than 90%, respectively.

In the case of `COC(CC1OC(=O)CC(O)CC(O)CC(=O)C(C)C(OC)c2coc(n2)-c2coc(n2)-c2coc(n2)/C=C/CCC1C)C(C)CCC(=O)C(C)C(C/C=C/N(C)C=O)OC` (stereo unspecified) [JASPISAMIDE A], the result with Bacillus subtilis, with Staphylococcus aureus [1], with Salmonella typhimurium, in the experiment with Escherichia coli, in the experiment on Staphylococcus aureus [3] and in the experiment with Proteus vulgaris was inactive. For the same compound, the result in [9] was inactive. Besides, the MIC (against Candida albicans; against Aspergillus fumigatus; in the experiment with Trichophyton rubrum; in [2]) was more than 100 µg/mL in each case.
